Reference: PubChem BioAssay (NCI)
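Abbreviation: GI50, concentration required for 50% inhibition of growth. TGI marks complete inhibition of growth.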

Columns and labels:
Assay in all cases: growth of human tumour cells (NCI), 384-well format
[1] = tested on: SK-MEL-28 melanoma
[2] = tested on: OVCAR-8 ovarian
[3] = tested on: MCF7 breast
[4] = tested on: LOX IMVI melanoma
[5] = tested on: BT-549 breast
[6] = tested on: HCT-15 colon
[7] = tested on: SNB-75 CNS
[8] = tested on: OVCAR-3 ovarian
[9] = tested on: SF-295 CNS
[10] = tested on: UACC-257 melanoma
[11] = tested on: MOLT-4 leukemia
[12] = tested on: EKVX NSCLC
[13] = tested on: A549 NSCLC
[14] = tested on: A498 renal
[15] = tested on: OVCAR-4 ovarian
[16] = tested on: SK-MEL-5 melanoma
[17] = tested on: RPMI-8226 leukemia
[18] = tested on: M14 melanoma
[19] = tested on: NCI-H322M lung
[20] = tested on: NCI-H522 lung
[21] = tested on: HOP-62 NSCLC
[22] = tested on: MDA-MB-231 breast
[23] = tested on: NCI-H226 lung
[24] = tested on: SF-268 CNS
[25] = tested on: ACHN renal
[26] = tested on: SK-OV-3 ovarian
[27] = tested on: HL-60(TB) leukemia
[28] = tested on: NCI-H460 NSCLC
[29] = tested on: SF-539 CNS
[30] = tested on: KM12 colon
[31] = tested on: HCC-2998 colon
[32] = tested on: CAKI-1 renal
[33] = tested on: U251 glioblastoma
[34] = tested on: HS 578T breast
[35] = tested on: T-47D breast
[36] = tested on: SNB-19 CNS
[37] = tested on: MDA-MB-435 melanoma
[38] = tested on: SR leukemia
[39] = tested on: HOP-92 NSCLC
[40] = tested on: UACC-62 melanoma
[41] = tested on: HT29 colon
[42] = tested on: COLO 205 colon
[43] = tested on: RXF 393 renal
[44] = tested on: TK-10 renal
[45] = tested on: HCT-116 colon
[46] = tested on: NCI-H23 lung
[47] = tested on: DU-145 prostate
[48] = tested on: PC-3 prostate
[49] = tested on: IGROV1 ovarian
[50] = tested on: MALME-3M melanoma
[51] = tested on: MDA-MB-468 breast
[52] = tested on: NCI/ADR-RES ovarian
[53] = tested on: SN12C renal
[54] = tested on: OVCAR-5 ovarian

## Clc1ccc(N2CCC(N3CCCC3)CC2)cc1-c1nc2ccccc2[nH]1
[1]
  GI50: 14.9 µM
  TGI: 28.3 µM
[2]
  GI50: 16.7 µM
  TGI: 31.1 µM
[3]
  GI50: 12.1 µM
  TGI: 25.4 µM
[4]
  GI50: 16.5 µM
  TGI: 30.2 µM
[5]
  GI50: 8.67 µM
  TGI: 20.9 µM
[6]
  GI50: 3.84 µM
  TGI: 14.1 µM
[7]
  GI50: 16.9 µM
  TGI: 31 µM
[8]
  GI50: 14.6 µM
  TGI: 28 µM
[9]
  GI50: 17.8 µM
  TGI: 31.8 µM
[10]
  GI50: 2 µM
  TGI: 4.78 µM
[11]
  GI50: 16.5 µM
  TGI: 30.3 µM
[12]
  GI50: 14.2 µM
  TGI: 28.1 µM
[13]
  GI50: 17.2 µM
  TGI: 32.3 µM
[14]
  GI50: 14.4 µM
  TGI: 27.6 µM
[15]
  GI50: 11.9 µM
  TGI: 25.9 µM
[16]
  GI50: 4.01 µM
  TGI: 16 µM
[17]
  GI50: 16.1 µM
  TGI: 29.7 µM
[18]
  GI50: 18 µM
  TGI: 32 µM
[19]
  GI50: 14.3 µM
  TGI: 32 µM
[20]
  GI50: 17.7 µM
  TGI: 31.6 µM
[21]
  GI50: 16.1 µM
  TGI: 29.8 µM
[22]
  GI50: 17 µM
  TGI: 31.2 µM
[23]
  GI50: 15.2 µM
  TGI: 28.6 µM
[24]
  GI50: 16.3 µM
  TGI: 30.1 µM
[25]
  GI50: 16.6 µM
  TGI: 30.8 µM
[26]
  GI50: 14.1 µM
  TGI: 27.5 µM
[27]
  GI50: 12.3 µM
  TGI: 25 µM
[28]
  GI50: 17.2 µM
  TGI: 31.4 µM
[29]
  GI50: 16.9 µM
  TGI: 30.9 µM
[30]
  GI50: 14.8 µM
  TGI: 29.1 µM
[31]
  GI50: 12.5 µM
  TGI: 25.3 µM
[32]
  GI50: 16.9 µM
  TGI: 33.4 µM
[33]
  GI50: 16.9 µM
  TGI: 30.7 µM
[34]
  GI50: 14.8 µM
  TGI: 28.1 µM
[35]
  GI50: 13.9 µM
  TGI: 27.4 µM
[36]
  GI50: 18.2 µM
  TGI: 37 µM
[37]
  GI50: 17.1 µM
  TGI: 30.9 µM
[38]
  GI50: 11.8 µM
  TGI: 24.2 µM
[39]
  GI50: 18.4 µM
  TGI: 32.8 µM
[40]
  GI50: 13.5 µM
  TGI: 26.6 µM
[41]
  GI50: 10.9 µM
  TGI: 23.6 µM
[42]
  GI50: 14.3 µM
  TGI: 27.6 µM
[43]
  GI50: 15.1 µM
  TGI: 28.6 µM
[44]
  GI50: 12.4 µM
  TGI: 25 µM
[45]
  GI50: 11.7 µM
  TGI: 24.7 µM
[46]
  GI50: 14.1 µM
  TGI: 27.7 µM
[47]
  GI50: 15.3 µM
  TGI: 32.5 µM
[48]
  GI50: 15.1 µM
  TGI: 30.5 µM
[49]
  GI50: 15.5 µM
  TGI: 29.5 µM
[50]
  GI50: 13 µM
  TGI: 25.8 µM
[51]
  GI50: 14.1 µM
  TGI: 27.3 µM
[52]
  GI50: 15.4 µM
  TGI: 32.5 µM
[53]
  GI50: 11.8 µM
  TGI: 24.5 µM
[54]
  GI50: 15.8 µM
  TGI: 30.1 µM
